Assay results reported in patent publication US20030119903A1, “Use of trimebutine for treating pain” (priority 1999, published 2003).
Read-outs that look alike come from different tables or passages of the source.

Key:
[1] = test system: veratridine-induced glutamate release; test: veratridine-induced [3H]-glutamate release from rat spinal cord slices; conditions: for IC50: read-out: IC50, inhibition of veratridine-induced glutamate release
[2] = test system: voltage-dependent Kv1.1 and Kv1.2 channels; test: two-electrode voltage clamp, potassium currents in Xenopus oocytes; conditions: 10 μM, Kv1.1 and Kv1.2 in Xenopus oocytes
Protocol: (B) Potassium currents expressed in Xenopus oocytes. Superimposed current traces induced by 400 ms depolarizations at −40 to +20 mV (in 10 mV step from −80 mV).
Two voltage-dependent K^+ channels are considered: the shaker-related Kv1.1 and Kv1.2 channels.
The rat voltage-dependent rKv1.1 and rKv1.2 channels are expressed in Xenopus oocytes. […] The transcriptions are done using the Ambion Megascript (Ambion, USA) and the cRNAs are stored in water at 1 mg/ml. cRNAs injection in Xenopus oocytes is done at 2-4 ng/ml. Defolliculated oocytes are kept in ND96 medium supplemented with 0.1 U/ml gentamicin. The currents are recorded 1-6 days after injection.
A two-electrode voltage clamp amplifier (Geneclamp 500, Axon Instruments) is used to record K^+ currents from Xenopus oocytes. The KCl (3M)-filled electrodes had tip resistance<1 MΩ. The oocytes are continuously superfused with a Ca^2+-free ND96 medium in order to abolish the large Ca^2+-activated Cl^− current present in these cells.

[3] = test system: sodium currents in GH3 cells; test: sodium currents in GH3 cells; type: cell-based, rat; conditions: read-out: IC50, sodium current block (summary statement)
[4] = test system: sodium currents in DRG neurons; test: whole cell patch clamp, sodium currents in DRG neurons; type: cell-based, rat
[5] = test system: μ-, δ- and κ- opioid receptors; conditions: rat brain, guinea-pig and canine intestinal receptors; no subtype selectivity; cited from earlier work
[6] = volunteers, tablets of 900 mg trimebutine, oral
formalin induced pain = test: formalin-induced pain; conditions: for ED50: Rattus norvegicus, sc, read-out: ED50, formalin induced pain (licking time)
[7] = test system: PGE2-induced hyperalgesia; test: PGE2-induced hyperalgesia (Randall and Selitto's test)
Protocol: Test is carried out with Sprague-Dawley male rats (100-120 grams) on arrival. They are housed 5 per cage and acclimated to the conditions of the animal room for 5 days under a 12/12 day/night cycle and a constant room temperature of 22° C. Food and water are provided ad libidum.
A solution of PGE2 (1 mg/ml) is prepared as a stock solution in a 10% (v/v) alcohol in apyrogen sterile saline and stored at 4° C. for 4 days.
A solution of PGE2 (1 μg/ml) is freshly prepared twice daily in sterile saline and 100 μl is injected subplantar into the left paw of rat, twice daily for 4 days. Using this protocol, hyperalgesia is present for at least a week following completion for 4 days of treatment.
Hyperalgesia is measured by the Randall and Selitto's test (Randall and Setillo,1957) using an analgesimeter (Ugo Basile). The analgesimeter is basically a device which exerts a force that increases at constant rate. The force is applied to the animal's paw which is placed on a small plinth under a cone-shaped pusher. The operator depresses a pedal-switch to start the mechanism with exerts the force. The nociceptive threshold is defined as the force at which the rat withdraws its paw. The threshold is determined before and after treatment.
% of antinociceptive activity is calculated as follows: [formula]

[8] = test system: unilateral peripheral mononeuropathy; test: rat mononeuropathy, vocalization threshold to paw pressure; conditions: for duration of the antinociceptive effect: (S)-Nor-TMB s.c., morphine i.v.
[9] = test system: streptozocin-induced hyperalgesia; test: streptozocin-induced diabetic rats, tail immersion test; type: in vivo, rat; conditions: 30 mg/kg s.c. single dose, 30 min or 60 min before test, 44° C.
From the text: FIG. 9: Effect of TMB in diabetic rats.
Streptozocin is a selective pancreatic β-cell toxin, which has been used to induce experimental diabetes in laboratory animals (Tomlinson K. C. et al., 1992,). The resultant loss of endogenous insulin induced by streptozocin mimics the characteristics of type I, or insulin-dependent, diabetes. Streptozocin-induced diabetes has recently been described as a model of chronic pain in rats. It has been reported that streptozocin administration leads to mechanical, thermal, and chemical hyperalgesia as well as mechanical hypersensitivity (Courteix C. et al., 1993; Calcutt N. A. et al., 1996). The most common symptoms of diabetic neuropathy appear to be spontaneous burning pain and mechanical hypersensitivity in the feet or lower limbs.
Test is carried out with male Sprague Dawley rats (Iffa-Credo) weighing 160-180 grams on arrival. […] Food and water are provided ad libidum.
Animals are intraperitoneally injected with streptozocin 75 mg/kg. Control animals are given vehicle in the same conditions. Diabetes are confirmed once a week after injection by measurement of tail vein blood glucose levels with Boehriger glycemia test. […]
The tail of the rat is immersed in a water bath at 44° C. […] Results are expressed as the mean+/−SEM and analysed by a Student's t test after an analysis of variance (Anova one way).

Question: Which “concentration at which inhibition of glutamate release is seen / significant” value [1] does the source give for `CCC(COC(=O)c1cc(OC)c(OC)c(OC)c1)(c1ccccc1)N(C)C.O=C(O)/C=C\C(=O)O` (racemic) [trimebutine, 2-dimethylamino-2-phenylbutyl 3,4,5-trimethoxybenzoate hydrogen maleate] here?
Answer: higher than 60 μM

Question: And the IC50 ([1]; Rattus norvegicus)?
Answer: > 100 µM

Question: What about the “K+ current block” value [2] of the same compound?
Answer: 23±6%

Question: What about the IC50 [3] of the same compound?
Answer: < 1 µM

Question: What about the blocking rate kon [4] of the same compound?
Answer: 35-40 10^−3s^−1 μM^−1

Question: What about the unblocking rate koff [4] of the same compound?
Answer: 29 10^−3s^−1

Question: What about the “time constant of channel block” value ([4]; 10 μM) of the same compound?
Answer: 2.2 s

Question: And the “τoff, time constant of recovery from block” value ([4]; n=6)?
Answer: 34 ± 4 s

Question: What about the IC50 ([4]; read-out: IC50, best fit to Hill function (FIG. 4D legend)) of the same compound?
Answer: 0.69 µM

Question: And the IC50 ([4]; read-out: IC50, sodium current block (dose-response curve, text))?
Answer: 1.05 ± 0.09 µM

Question: What about the IC50 ([4]; read-out: IC50, sodium current block (summary statement)) of the same compound?
Answer: < 1 µM

Question: And the “activity at opioid receptors” value [5]?
Answer: weak agonist activity

Question: And the “time of maximal plasma concentration” value [6]?
Answer: 1 h

Question: And the ED50 (formalin induced pain)?
Answer: 231 mg/kg

Question: With `CC[C@@](COC(=O)c1cc(OC)c(OC)c(OC)c1)(NC)c1ccccc1` [(R)-Nor-TMB, (R) N-desmethyl trimebutine] as the compound, how does the IC50 ([1]; Rattus norvegicus) read?
Answer: 16.3 µM

Question: What does the source list for `CC[C@](COC(=O)c1cc(OC)c(OC)c(OC)c1)(c1ccccc1)N(C)C` [(R)-Trimebutine]?
Answer: IC50 ([1]; Rattus norvegicus): > 100 µM; inhibition of PGE2-induced hyperalgesia ([7]; 100 mg/kg s.c.): 57%

Question: Which IC50 ([1]; Rattus norvegicus) does the source give for `CC[C@](COC(=O)c1cc(OC)c(OC)c(OC)c1)(NC)c1ccccc1` [(S)-Nor-TMB, (S)-N-desmethyl trimebutine] here?
Answer: 6.3 µM

Question: And the “antinociceptive effect compared with morphine 1 mg/kg i.v.” value ([8]; 3 and 10 mg/kg s.c., amplitude and duration)?
Answer: superior to that of morphine

Question: And the “duration of the antinociceptive effect” value [8]?
Answer: more than 90 min

Question: What about the “dose from which the increase of vocalization pressure threshold is present” value ([8]; s.c.) of the same compound?
Answer: ≥ 1 mg/kg

Question: What about the “antinociceptive effect, contralateral paw” value ([8]; vocalization threshold, s.c.) of the same compound?
Answer: only at the highest dose (10 mg/kg)

Question: What about the “antinociceptive effect, nerve-injured paw” value ([8]; vocalization threshold, s.c.) of the same compound?
Answer: significant at all the three doses tested

Question: What about the “reaction time of tail withdrawal from hot water” value [9] of the same compound?
Answer: the same as in control (non diabetic) rats

Question: And the “inhibition of PGE2-induced hyperalgesia” value ([7]; 20 mg/kg s.c.)?
Answer: up to 89%

Question: And the ED50 ([7]; Rattus norvegicus, sc, read-out: ED50, PGE2-induced hyperalgesia)?
Answer: 7 mg/kg

Question: Which IC50 ([1]; Rattus norvegicus) does the source give for `CC[C@@](COC(=O)c1cc(OC)c(OC)c(OC)c1)(c1ccccc1)N(C)C` [(S)-Trimebutine] here?
Answer: 15.2 µM

Question: For `CCC(COC(=O)c1cc(OC)c(OC)c(OC)c1)(NC)c1ccccc1` (stereo not shown) [Nor-TMB, N-desmethyl trimebutine], which IC50 ([1]; veratridine 40 μM, rat spinal cord slices) is on record?
Answer: 8.4 µM

Question: And the “inhibition parameters (IC50, nH) compared with trimebutine” value ([4]; DRG neurons)?
Answer: very similar

Question: What about the “ED50, formalin induced pain (licking time)” value (formalin induced pain; s.c., 30 min before testing) of the same compound?
Answer: 17 mg/kg

Question: With `CCCCN1CCCCC1C(=O)Nc1c(C)cccc1C` (stereo not shown) [bupivacaine] as the compound, how does the IC50 ([1]; Rattus norvegicus) read?
Answer: 8.2 µM

Question: Which “effect on veratridine-induced glutamate release” value ([1]; up to 100 μM) does the source give for `CN1CC[C@]23c4c5ccc(O)c4O[C@H]2[C@@H](O)C=C[C@H]3[C@H]1C5` [morphine] here?
Answer: inactive

Question: What about the “duration of the antinociceptive effect” value [8] of the same compound?
Answer: less than 60 min

Question: And the ED50 (formalin induced pain)?
Answer: 0.51 mg/kg
